Reference: the NIST ThermoML archive (doi:10.1016/j.jct.2008.01.009)

What was measured:
[1] = molar heat capacity at saturation pressure; conditions: Liquid, Small (less than 1 g) adiabatic calorimetry
[2] = for vapor or sublimation pressure / mass density: Liquid; for mass density: Vibrating tube method
[3] = molar heat capacity at constant pressure; conditions: 101.33 kPa, Vacuum adiabatic calorimetry

C1=Cc2ccccc2CC1 [1,2-dihydronaphthalene]
Conditions | Triple point temperature [K] | mass density [kg/m3] | molar heat capacity [J/K/mol]
[1], 395.44 K | – | – | 250.46
[1], 410.93 K | – | – | 257.02
[1], 426.18 K | – | – | 263.43
[1], 438.72 K | – | – | 268.69
[2], 323.15 K | – | 971.8 | –
[2], 348.15 K | – | 951.1 | –
[2], 373.15 K | – | 930.3 | –
[2], 398.15 K | – | 909.7 | –
[2], 423.15 K | – | 889.1 | –
[2], 448.15 K | – | 867.8 | –
[2], 473.15 K | – | 846.1 | –
[2], Crystal 1, Adiabatic calorimetry | 264.38 | – | –

Conditions | molar heat capacity at constant pressure [J/K/mol] | vapor or sublimation pressure [kPa]
[2], 290 K, Inclined piston gauge | – | 0.0253
[2], 299.97 K, Inclined piston gauge | – | 0.0534
[2], 310 K, Inclined piston gauge | – | 0.1078
[2], 319.99 K, Inclined piston gauge | – | 0.2047
[2], 329.98 K, Inclined piston gauge | – | 0.3717
[2], 339.99 K, Inclined piston gauge | – | 0.6472
[2], 349.98 K, Inclined piston gauge | – | 1.086
[2], 359.98 K, Inclined piston gauge | – | 1.76
[2], 362.71 K, Twin ebulliometer | – | 1.998
[2], 364.97 K, Inclined piston gauge | – | 2.214
[2], 369.18 K, Twin ebulliometer | – | 2.671
[2], 369.98 K, Inclined piston gauge | – | 2.766
[2], 378.73 K, Twin ebulliometer | – | 4.013
[2], 385.76 K, Twin ebulliometer | – | 5.332
[2], 396.37 K, Twin ebulliometer | – | 7.999
[2], 404.33 K, Twin ebulliometer | – | 10.67
[2], 410.79 K, Twin ebulliometer | – | 13.33
[2], 417.49 K, Twin ebulliometer | – | 16.67
[2], 423.06 K, Twin ebulliometer | – | 19.93
[2], 430.39 K, Twin ebulliometer | – | 25.02
[2], 437.8 K, Twin ebulliometer | – | 31.18
[2], 445.24 K, Twin ebulliometer | – | 38.56
[2], 452.74 K, Twin ebulliometer | – | 47.37
[2], 460.3 K, Twin ebulliometer | – | 57.81
[2], 467.91 K, Twin ebulliometer | – | 70.1
[2], 475.59 K, Twin ebulliometer | – | 84.53
[2], 483.32 K, Twin ebulliometer | – | 101.33
[2], 491.1 K, Twin ebulliometer | – | 120.79
[2], 498.94 K, Twin ebulliometer | – | 143.26
[2], 506.84 K, Twin ebulliometer | – | 169.03
[3], 5 K, Crystal 3 | 0.28 | –
[3], 10 K, Crystal 3 | 2.69 | –
[3], 20 K, Crystal 3 | 13.26 | –
[3], 30 K, Crystal 3 | 24.12 | –
[3], 40 K, Crystal 3 | 33.18 | –
[3], 50 K, Crystal 3 | 40.87 | –
[3], 60 K, Crystal 3 | 47.15 | –
[3], 70 K, Crystal 3 | 52.76 | –
[3], 80 K, Crystal 3 | 57.88 | –
[3], 90 K, Crystal 3 | 62.79 | –
[3], 100 K, Crystal 3 | 67.58 | –
[3], 120 K, Crystal 3 | 77.47 | –
[3], 140 K, Crystal 3 | 90.29 | –
[3], 146 K, Crystal 2 | 95.59 | –
[3], 146 K, Crystal 3 | 95.33 | –
[3], 160 K, Crystal 2 | 104.39 | –
[3], 180 K, Crystal 2 | 115.29 | –
[3], 194.4 K, Crystal 1 | 126.5 | –
[3], 194.4 K, Crystal 2 | 124.59 | –
[3], 200 K, Crystal 1 | 129.36 | –
[3], 220 K, Crystal 1 | 141.06 | –
[3], 240 K, Crystal 1 | 155.01 | –
[3], 250 K, Liquid | 191.22 | –
[3], 260 K, Crystal 1 | 171.24 | –
[3], 260 K, Liquid | 195.03 | –
[3], 264.38 K, Crystal 1 | 175.09 | –
[3], 264.38 K, Liquid | 196.72 | –
[3], 280 K, Liquid | 202.59 | –
[3], 298.15 K, Liquid | 209.64 | –
[3], 300 K, Liquid | 210.37 | –
[3], 320 K, Liquid | 218.52 | –
[3], 340 K, Liquid | 226.88 | –
[3], 360 K, Liquid | 235.35 | –
[3], 380 K, Liquid | 243.89 | –
[3], 400 K, Liquid | 252.39 | –
[3], 420 K, Liquid | 260.86 | –
[3], 440 K, Liquid | 269.35 | –
[3], 460 K, Liquid | 277.87 | –
[3], 480 K, Liquid | 286.36 | –
[3], 500 K, Liquid | 294.85 | –
